Results on six compounds are retold here after patent publication US10125100B2, “Kinase inhibitors” (Respivert Limited, priority 2014, dated 2018).

For orientation: IC50 means the concentration needed to halve the response being measured. The term inhibition denotes the relative decrease from the control value, in per cent.

Counter-ions that a name gives are not always drawn. Like-named read-outs stand apart in the source and are kept apart here.

A short description of series [1]: Stability of pharmaceutical formulations. The class given is physicochemical. The settings on record: for Original Purity: 1 mg/mL solution, before storage; for Purity at week n = 1: 1 week; for Purity at week n = 2: 2 weeks; for Purity at week n = 4: 4 weeks. The method, then: The samples were sonicated to achieve clear solutions having the following properties: Osmolality (mOsm/kg): 310 (Na), 314 (HCl); pH: 7.00 (Na), 7.05 (HCl). 0.5 mL of the stock solutions were diluted to 1 mL with 20% DMSO in water & injected for purity analysis by HPLC. The remaining stock solutions were then split into aliquots of 0.5 mL in HPLC vials, and stored at various conditions in duplicate. Samples were stored at 5 and 25° C., before being analysed by HPLC at 1, 2 and 4 weeks. Separate samples were stored at 40° C. and analysed at 4 weeks.

Another series relates to Jurkat cells. Nature of the series: (r) Cell cytotoxicity assay. The class given is cell-based, human. The settings on record: 24 hours. The gist of the method:
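Viability read by flow cytometry as the fraction of propidium iodide-negative cells (7.5 μg/mL PI, 15 min), relative to 1.0% DMSO control. Beforehand, 1×10^5 Jurkat cells in RPMI/10% FBS were treated 24 h at 37° C., 5% CO2 with test compound at final 20, 5 or 1 μg/mL.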

Series [2] in a line: Pharmacokinetics and total colon distribution after oral administration. The class given is in vivo. The settings on record: male, C57BL/6, mouse, mice, oral 5 mg/kg, dosed compound measured. How it is done:
Studies were conducted by Sai Life Sciences (Hinjewadi, Pune, India) to investigate the systemic pharmacokinetics and total colon tissue distribution of compounds of the invention. In particular, pharmacokinetic studies were carried out in male C57BL/6 mice following a single oral administration of the compound.

In a further series the target is p38 MAPKα (MAPK14) (Homo sapiens (Human), UniProt Q16539). As to the kind of experiment: p38 MAPKα enzyme inhibition (Method 2), Z-LYTE FRET. Type of series: biochemical. Summed up: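 Enzyme (200 ng/mL solution) was preincubated 2 h at RT with compound solutions of 1, 0.1, 0.01 or 0.001 μg/mL, and inhibition was read indirectly via MAPKAP-K2 activation/phosphorylation. After a 1 h RT reaction and 1 h protease development, phosphorylation was derived from the coumarin/fluorescein emission ratio.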
p38 MAPKα (MAPK14), sequence (Q16539 whole entry): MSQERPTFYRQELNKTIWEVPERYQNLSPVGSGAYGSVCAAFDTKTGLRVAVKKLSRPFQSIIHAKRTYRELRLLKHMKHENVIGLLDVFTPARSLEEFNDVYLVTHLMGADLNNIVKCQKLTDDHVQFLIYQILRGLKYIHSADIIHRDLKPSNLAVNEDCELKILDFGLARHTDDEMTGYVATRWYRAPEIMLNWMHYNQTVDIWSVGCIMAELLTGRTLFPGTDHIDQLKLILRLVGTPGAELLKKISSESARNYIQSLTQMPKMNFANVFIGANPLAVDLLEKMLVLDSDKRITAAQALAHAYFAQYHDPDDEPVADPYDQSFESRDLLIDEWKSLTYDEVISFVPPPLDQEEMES

A further series deals with c-Src (Homo sapiens (Human), UniProt P12931). Nature of the series: c-Src enzyme inhibition, Z-LYTE FRET. Type of series: biochemical. The gist of the method: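 Z-LYTE FRET peptide phosphorylation read as donor coumarin over acceptor fluorescein ratio after 1 hr protease development. Compounds (1–0.001 μg/mL) preincubated 2 hr at RT with enzyme; ATP solutions 60 μM for Syk, 800 μM for c-Src; kinase reaction 1 hr.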
c-Src, sequence (P12931 whole entry, looked up): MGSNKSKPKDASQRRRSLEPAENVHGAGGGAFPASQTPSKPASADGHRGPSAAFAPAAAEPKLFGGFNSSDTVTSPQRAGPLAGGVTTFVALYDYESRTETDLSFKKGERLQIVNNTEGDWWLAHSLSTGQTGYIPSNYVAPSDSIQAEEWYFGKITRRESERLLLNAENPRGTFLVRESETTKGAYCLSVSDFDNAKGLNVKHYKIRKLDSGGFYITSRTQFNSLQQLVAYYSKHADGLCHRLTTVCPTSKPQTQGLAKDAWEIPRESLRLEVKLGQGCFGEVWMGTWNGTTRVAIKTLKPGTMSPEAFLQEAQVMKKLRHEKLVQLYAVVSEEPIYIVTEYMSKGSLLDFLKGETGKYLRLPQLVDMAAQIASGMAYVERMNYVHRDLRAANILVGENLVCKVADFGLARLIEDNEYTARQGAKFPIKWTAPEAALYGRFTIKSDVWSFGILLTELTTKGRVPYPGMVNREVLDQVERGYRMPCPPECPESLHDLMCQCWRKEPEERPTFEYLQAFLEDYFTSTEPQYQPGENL

For a further series, the target named is Syk (Homo sapiens (Human), UniProt P43405). As to the kind of experiment: Syk enzyme inhibition, Z-LYTE FRET. The class given is biochemical. Summed up: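 Syk or c-Src enzyme (3000 or 2000 ng/mL solutions) was preincubated 2 h at RT with compound solutions at 1, 0.1, 0.01 or 0.001 µg/mL. Z-LYTE FRET peptide (8 µM solution) and ATP (800 µM solution for c-Src, 60 µM for Syk) were then added for 1 h, followed by protease development for 1 h. Phosphorylation was read as the coumarin/fluorescein emission ratio.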

The next series concerns mitosis in PBMCs. As to the kind of experiment: (g) Cell mitosis assay. The class given is cell-based. The settings on record: Homo sapiens, PBMC, 5 μg/mL. Summed up:
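Healthy-donor PBMCs stimulated with 2% PHA for 48 hr, then exposed to test compounds at varying concentrations for 20 hr; demecolcine (0.1 μg/mL) added 2 hr before collection for metaphase arrest. Cells fixed/permeabilized, stained with anti-phospho-histone 3 and propidium iodide; mitotic cells counted by flow cytometry gating on lymphocytes.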

Where [3] appears, read: blood, read-out: Mean blood concentration.
Setting [4] is: total colon, read-out: total colon level.

Consider `COc1cc(Nc2cc(Oc3ccc(NC(=O)Nc4cc(C(C)(C)C)cc(NS(C)(=O)=O)c4OC)c4ccccc34)ccn2)ccc1C(=O)O.Cl` [Example 1, hydrochloride salt], for which the “Original Purity” value in series [1] (Sample 1) and in series [1] (Sample 2) was 98.1% in each case. Also, the “Purity at week n = 1” value in series [1] (Sample 1, 5° C.) is 98.2%; in series [1] (Sample 1, 25° C.), 98.0%; in series [1] (Sample 2, 5° C.), 98.2%; in series [1] (Sample 2, 25° C.), 98.0%. Besides, the “Purity at week n = 2” value is reported as 98.1% in series [1] (Sample 1, 5° C.); 97.7% in series [1] (Sample 1, 25° C.); 98.0% in series [1] (Sample 2, 5° C.); 97.6% in series [1] (Sample 2, 25° C.). Also, the “Purity at week n = 4” value in series [1] (Sample 1, 5° C.) is on record as 97.9%; in series [1] (Sample 1, 25° C.), 97.2%; in series [1] (Sample 1, 40° C.), 79.2%; in series [1] (Sample 2, 5° C.), 98.0%; in series [1] (Sample 2, 25° C.), 97.4%; in series [1] (Sample 2, 40° C.), 80.4%.

As for `COc1cc(Nc2cc(Oc3ccc(NC(=O)Nc4cc(C(C)(C)C)cc(NS(C)(=O)=O)c4OC)c4ccccc34)ccn2)ccc1C(=O)O` [Example 1, sodium salt], the “Purity at week n = 4” value in series [1] (Sample 1, 40° C.) is listed as 76.0%.

Consider `COc1cc(Nc2cc(Oc3ccc(NC(=O)Nc4cc(C(C)(C)C)cc(NS(C)(=O)=O)c4OC)c4ccccc34)ccn2)ccc1C(=O)NCCOCCOCCOP(=O)(O)O` [Example 19, 2-(2-(2-(4-((4-((4-(3-(5-(tert-Butyl)-2-methoxy-3-(methylsulfonamido)phenyl)ureido)-naphthalen-1-yl)oxy)pyridin-2-yl)amino)-2-methoxybenzamido)ethoxy)ethoxy)ethyl dihydrogen phosphate], for which, in the series with Jurkat cells, the “% Viability at 1 μg/mL” value was found to be 105.0%, the “% Viability at 5 μg/mL” value is 106.0% and the “% Viability at 20 μg/mL” value was determined as 100.9%. For the same compound, in series [2] (setting [3]), the concentration at 0.5 h was found to be 0 ng/mL, the concentration at 1 h stood at 0 ng/mL, the concentration at 2 h was found to be 0 ng/mL and the concentration at 4 h was found to be 0 ng/mL. In series [2] (setting [3]), the concentration at 6 h came out at 0 ng/mL, the concentration at 8 h amounted to 0 ng/mL, the concentration at 12 h came out at 0 ng/mL and the concentration at 24 h came out at 0 ng/mL. For the same compound, in series [2] (setting [4]), the concentration at 0.5 h amounted to 0 ng/g, the concentration at 1 h stood at 0 ng/g, the concentration at 2 h amounted to 0 ng/g and the concentration at 4 h came to 0 ng/g. Moreover, in series [2] (setting [4]), the concentration at 6 h amounted to 0 ng/g, the concentration at 8 h was found to be 0 ng/g, the concentration at 12 h was 0 ng/g and the concentration at 24 h came to 0 ng/g.

`COCCOCCOCCS(=O)(=O)c1ccc(Nc2cc(Oc3ccc(NC(=O)Nc4cc(C(C)(C)C)cc(NS(C)(=O)=O)c4OC)c4ccccc34)ccn2)cc1OC` [Example 12, 1-[5-tert-Butyl-3-(methanesulfonamido)-2-methoxy-phenyl]-3-[4-[[2-[3-methoxy-4-[2-[2-(2-methoxyethoxy)ethoxy]ethylsulfonyl]anilino]-4-pyridyl]oxy]-1-naphthyl]urea] displayed an IC50 at p38 MAPKα (MAPK14) of 23 nM. At c-Src, this compound came in with an IC50 of 209 nM. Further, at Syk, the half-inhibitory concentration (IC50) worked out at 831 nM. This compound came in with an inhibition at 5 µg/mL with mitosis in PBMCs of 22.1%. Besides, in the series on Jurkat cells, the “% Viability at 1 μg/mL” value is 74.5%, the “% Viability at 5 μg/mL” value amounted to 81.8% and the “% Viability at 20 μg/mL” value was determined as 82.9%.

`COc1cc(Nc2cc(Oc3ccc(NC(=O)Nc4cc(C(C)(C)C)cc(NS(C)(=O)=O)c4OC)c4ccccc34)ccn2)ccc1C(=O)NCCCN1CCOCC1` [17(b), 4-[[4-[[4-[[5-tert-butyl-3-(methanesulfonamido)-2-methoxy-phenyl]carbamoylamino]-1-naphthyl]oxy]-2-pyridyl]amino]-2-methoxy-N-(3-morpholinopropyl)benzamide] came in with an IC50 against p38 MAPKα (MAPK14) of 52 nM. For the same compound, inhibition against c-Src was half-maximal at 20 nM (IC50). Moreover, the 50% inhibitory concentration (IC50) at Syk came out at 98 nM. This compound registered an inhibition at 5 µg/mL with mitosis in PBMCs of 58.9%. Also, in the series with Jurkat cells, the “% Viability at 1 μg/mL” value was determined as 102.8%, the “% Viability at 5 μg/mL” value was found to be 93.8% and the “% Viability at 20 μg/mL” value came to 79.3%.

The compound `COc1cc(Nc2cc(Oc3ccc(NC(=O)Nc4cc(C(C)(C)C)cc(NS(C)(=O)=O)c4OC)c4ccccc34)ccn2)ccc1C(=O)NCCOCCOCCO` [Example 16, 4-[[4-[[4-[[5-tert-Butyl-3-(methanesulfonamido)-2-methoxy-phenyl]carbamoylamino]-1-naphthyl]oxy]-2-pyridyl]amino]-N-[2-[2-(2-hydroxyethoxy)ethoxy]ethyl]-2-methoxy-benzamide] had an IC50 on p38 MAPKα (MAPK14) of 34 nM. This compound returned an IC50 at c-Src of 22 nM. Moreover, at Syk, the IC50 came out at 107 nM. The compound further yielded an inhibition at 5 µg/mL in the series with mitosis in PBMCs of 50.1%. For the same compound, in the series with Jurkat cells, the “% Viability at 1 μg/mL” value turned out to be 90.1%, the “% Viability at 5 μg/mL” value was 52.5% and the “% Viability at 20 μg/mL” value amounted to 19.1%.
